Reference: patent US8716347B2, “Tramadol for the treatment of functional gastrointestinal disorders” (Euro-Celtique S.A., priority 2000, dated 2014)
Structures can show the parent of a compound that is named as a salt.

Experiments:
gut transit time = details: in vivo; cited from earlier work
[1] = test system: functional gastrointestinal disorder (diarrhoea with abdominal pain); assay: Treatment of patients with abdominal pain and diarrhoea with normal release tramadol (case reports); format: in vivo, human; details: 50 mg normal release twice daily
[2] = test system: patients started on tramadol pain therapy; details: initially when started on tramadol pain therapy; cited from earlier work
[3] = Example 2: person with abdominal pain and diarrhoea

## CN(C)CCCN1c2ccccc2CCc2ccccc21 [imipramine]
Gut transit time
  effect on gut transit time: increase gut transit time

## COc1cccc(C2(O)CCCCC2CN(C)C)c1 (stereo not shown) [tramadol hydrochloride]
[1]; Example 1: person, long term chronic refractory diarrhoea
  bowel movements after treatment: normal bowel movements
[1]; Example 1: person, severe persistent abdominal pain
  abdominal pain after treatment: absence of pain

## COc1cccc(C2(O)CCCCC2CN(C)C)c1 (stereo not shown) [tramadol, 2-[(Dimethylamino)methyl]-1-(3-methoxyphenyl)cyclohexanol]
[1]; [3]
  abdominal pain after treatment: relief of pain
  bowel movements after treatment: normal bowel movements
[1]; Example 2: person
  side effect: some drowsiness
[2]
  proportion of patients suffering nausea and vomiting: one third and a half
